In article PMC6274376, “Naturally Inspired Molecules as Multifunctional Agents for Alzheimer’s Disease Treatment” (Molecules, 2016):

Test system: SH-SY5Y cells
Assay: Neurotoxicity, MTT cell viability assay
Type: cell-based, human
Details: SH-SY5Y cells, MTT
Experimental: Cytotoxic effects in several in vitro or in vivo models have been reported for some chalcones. Therefore, to discriminate the neurotoxic concentrations of the conjugates 3–5 we evaluated the cell viability of human neuronal SH-SY5Y cells after 24 h treatment with these conjugate at different concentrations (1.25–40 μM) using the MTT assay. […] Thus, the presence of an α,β-unsatured carbonyl fragment seems to positively influence the degree of neuronal toxicity, leading to molecules endowed with a favorable SI.
Human neuronal (SH-SY5Y) cells were routinely grown in Dulbecco’s modified Eagle’ Medium (DMEM) supplemented with 10% fetal bovine serum, 2 mmol/L-glutamine, 50 U·mL^−1penicillin and 50 μg·mL^−1streptomycin at 37 °C in a humidified incubator with 5% CO2.
To evaluate the neurotoxicity of compounds, the SH-SY5Y cells were seeded in 96-well plates at 2 × 10^4 cells/well, incubated for 24 h and subsequently treated with various concentrations of compounds (1.25–40 µM) for 24 h at 37 °C in 5% CO2;. The cell viability in terms of mitochondrial metabolic function was evaluated by the reduction in 3-(4,5-dimethyl-2-thiazolyl)-2,5-diphenyl-2H-tetrazolium bromide (MTT) to formazan as previously described. The quantity of formazan was directly proportional to the number of viable cells. Briefly, the treatment medium was replaced with MTT (5 mg/mL) in phosphate-buffered saline (PBS) for 2 h at 37 °C in 5% CO2. After washing with PBS, the formazan crystals were dissolved with isopropanol. The amount of formazan was measured (570 nm, reference filter 690 nm) using a multilabel plate reader (VICTOR™ X3, PerkinElmer, Waltham, MA, USA). The neurotoxicity is expressed as concentration of compound resulting in 50% inhibition of cell viability.

SMILES: CN(Cc1ccccc1)Cc1ccc(C(=O)c2ccc(OCCOc3ccc(C(=O)/C=C/c4cccc5ccccc45)c(O)c3)cc2)cc1 [Compound 5, E-1-{4-[2-(4-4-Benzylmethylaminomethylbenzoylphenoxy)ethoxy]-2-hydroxyphenyl}-3-(naphthalen-1-yl)-prop-2-en-1-one]
- IC50 (Homo sapiens, 24 h treatment, 1.25–40 µM, mean ± SD): > 40 µM
- neurotoxic effects (24 h, 1.25–40 μM): not
